Measured values published in US6103729A, “Cathecol derivatives and a method for the preparation thereof and a pharmaceutical composition containing the same” (Cheil Jedang Corp., priority 1996, dated 2000).

What was measured:
Wistar rats = assay: Passive Cutanious Anaphylaxis (PCA); type: in vivo, rat; details: oral, female Wistar rats, evans blue read at 620 nm
Method: I. Passive Cutanious Anaphylaxis (PCA)
Hair on the back of each of the three 5 weeks old female Wistar rats were cut by clippers. Prepared mouse antiserum was diluted with 50×physiological saline solution. 0.05 ml of diluted antiserum solution was subcutaneously injected into two hair-cut sites on the back of each rat. After 3 hours, the test compounds were orally administered to the rats. After 30 minutes, 0.1% ovalbumin as antigen was mixed with 1% evans blue in the equivalent volumes and 0.1 ml of the mixture was injected in a peripheral vein of the tail of each rat. After 30 minutes, rats were sacrificed by bleeding from the abdominal arteries and their skins were stripped from the subcutaneous injection spots in uniform sizes. After immersing the stripped skins in 1.0 ml of 1.2 N KOH in 9 ml test tube and stopping the tube, a shaking incubation was performed at 37° C. for 24 hours. Then, after the mixtured solution of acetone and 0.6 N phosphoric acid (13:5) was added, the test tube was shaking-incubated for 1 hour and centrifuged to 1,700 g at 20° C. for 10 minutes. After insoluble lipids were removed from the top of the supernatant, the supernatant was measured at 620 nm. IgE was quantified by diluting the mixtured acetone-phosphoric aicd solution and drawing evans blue assay lines. The results are shown in Table I below, in which the amounts of IgE were expressed as μg/ml.

Phosphodiesterase II = target: T1, Phosphodiesterase II (Homo sapiens, UniProt O00408); assay: Inhibition of phosphodiesterase activity ([3H]cAMP hydrolysis); type: biochemical; details: PDE partially purified from human U937 cells, 1.0 μM cAMP, 30° C., 20 minutes; test concentration not given
T1 construct: partially purified from human U937 cells; endogenous in cells; host or cells: U937 cells (partially purified)
T1 sequence (O00408 whole entry): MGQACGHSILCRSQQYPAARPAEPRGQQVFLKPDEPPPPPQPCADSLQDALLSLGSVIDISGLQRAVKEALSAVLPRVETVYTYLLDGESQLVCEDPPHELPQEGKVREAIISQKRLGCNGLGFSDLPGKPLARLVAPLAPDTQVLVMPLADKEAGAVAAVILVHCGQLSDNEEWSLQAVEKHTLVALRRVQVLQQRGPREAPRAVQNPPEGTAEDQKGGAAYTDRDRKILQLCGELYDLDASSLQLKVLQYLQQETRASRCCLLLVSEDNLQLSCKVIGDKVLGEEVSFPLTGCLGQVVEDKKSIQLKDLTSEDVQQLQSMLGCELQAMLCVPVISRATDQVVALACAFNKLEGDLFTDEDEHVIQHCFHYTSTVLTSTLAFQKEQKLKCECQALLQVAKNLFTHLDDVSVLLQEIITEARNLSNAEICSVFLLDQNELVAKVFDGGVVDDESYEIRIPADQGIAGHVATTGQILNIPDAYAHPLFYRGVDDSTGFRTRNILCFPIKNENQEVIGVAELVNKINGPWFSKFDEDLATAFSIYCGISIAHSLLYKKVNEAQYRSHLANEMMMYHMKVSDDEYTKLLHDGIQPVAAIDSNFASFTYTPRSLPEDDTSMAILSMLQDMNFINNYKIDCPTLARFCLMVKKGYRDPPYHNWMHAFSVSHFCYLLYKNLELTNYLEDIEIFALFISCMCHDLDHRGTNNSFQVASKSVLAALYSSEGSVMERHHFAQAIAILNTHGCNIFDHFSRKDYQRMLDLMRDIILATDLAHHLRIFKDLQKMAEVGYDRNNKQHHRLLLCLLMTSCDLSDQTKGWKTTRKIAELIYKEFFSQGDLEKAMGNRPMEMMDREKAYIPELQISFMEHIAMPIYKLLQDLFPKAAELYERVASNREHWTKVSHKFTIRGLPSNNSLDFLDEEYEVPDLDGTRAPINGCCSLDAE
Method: (§1) II. Inhibition of Phosphodiesterase IV Activity
(§2) Phosphodiesterase I, II, III, IV or V partially purified from human U937 cells, test compound of Example 1, 2 or 3 and 1.0 μM cAMP including μM [^3 H] cAMP were incubated at 30° C. for 20 minutes. The PDE reaction to convert cAMP into AMP was completed by boiling the reaction solution for 2 minutes. AMP was converted into adenosine by adding snake venom nucleotidase and incubating the reaction solution for 10 minutes. While unhydrolyzed cAMPs were bonded to AG1-X2 resin, the aqueous remaining [^3 H] adenosine was quantified by scintillation counting. The results are shown in Table II below, in which the values indicate inhibition(%) of each PDE by each test compound.

Phosphodiesterase III = assay: as above; type: biochemical; details: PDE partially purified from human U937 cells, 1.0 μM cAMP, 30° C., 20 minutes; test concentration not given
Method: as §1, §2

Phosphodiesterase IV = assay: as above; type: biochemical; details: PDE partially purified from human U937 cells, 1.0 μM cAMP, 30° C., 20 minutes; test concentration not given
Method: as §1, §2

Phosphodiesterase I = assay: as above; type: biochemical; details: PDE partially purified from human U937 cells, 1.0 μM cAMP, 30° C., 20 minutes; test concentration not given
Method: as §1, §2

Phosphodiesterase V = target: T2, Phosphodiesterase V (Homo sapiens, UniProt O76074); assay: as above; type: biochemical; details: PDE partially purified from human U937 cells, 1.0 μM cAMP, 30° C., 20 minutes; test concentration not given
T2 construct: printed source human U937 cells (possibly human platelets in practice)
Method: as §1, §2

| SMILES | amounts of IgE (Wistar rats; dose 0.1 mg/rat) | amounts of IgE (Wistar rats; dose 2.0 mg/rat) | inhibition(%) of Phosphodiesterase Type II (Phosphodiesterase II) | inhibition(%) of Phosphodiesterase Type III (Phosphodiesterase III) | inhibition(%) of Phosphodiesterase Type IV (Phosphodiesterase IV) | inhibition(%) of Phosphodiesterase Type I (Phosphodiesterase I) | inhibition(%) of Phosphodiesterase Type V (Phosphodiesterase V) |
| --- | --- | --- | --- | --- | --- | --- | --- |
| COc1ccc(C(=O)Nc2nc[nH]c2C(N)=O)cc1OC1CCCC1 [Example 2] | 3.381 µg/mL | 2.694 µg/mL | 60% | 67% | 80% | 68% | 61% |
| COc1ccc(C(=O)Nc2ccsc2C(N)=O)cc1OC1CCCC1 [Example 3] |  |  | 68% | 74% | 90% | 67% | 69% |
| COc1ccc(C(=O)Nc2n[nH]cc2C(N)=O)cc1OC1CCCC1 [Example 1, 3-(3-cyclopentyloxy-4-methoxyphenylcarboxylamido)-1H-4-pyrazolecarboxylamide] | 4.578 µg/mL | 4.099 µg/mL | 65% | 68% | 90% | 58% | 89% |
